Laboratory results taken from patent US10584128B2, “Bicyclic dihydropyrimidine-carboxamide derivatives as Rho-Kinase inhibitors” (CHIESI FARMACEUTICI S.p.A., priority 2016, dated 2020).

Assays:
Rho kinase 1 = Rho kinase 1 (Homo sapiens, UniProt Q13464); test: In vitro Rho kinase inhibitory activity assay (ADP-Glo kit, Myelin Basic Protein substrate); assay type: biochemical; conditions: 10 μM ATP, 25° C., read-out: ROCK1 inhibitory activity (Ki, range of activity)
Outline: (§1)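 ADP-Glo luminescence assay at 25 °C in 40 mM Tris pH 7.5, 20 mM MgCl2, 0.1 mg/ml BSA, 50 μM DTT, with 2.5 μM myelin basic protein, 10 μM ATP and 1% DMSO. Compound and ROCK1 or ROCK2 were preincubated 30 min, then reacted 1 h. IC50 came from a sigmoidal fit; Ki via Cheng-Prusoff.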

Rho kinase 2 = Rho kinase 2 (Homo sapiens, UniProt O75116); test: as above; assay type: biochemical; conditions: 10 μM ATP, 25° C., read-out: ROCK2 inhibitory activity (Ki, range of activity)
Sequence of Rho kinase 2 (O75116 whole entry): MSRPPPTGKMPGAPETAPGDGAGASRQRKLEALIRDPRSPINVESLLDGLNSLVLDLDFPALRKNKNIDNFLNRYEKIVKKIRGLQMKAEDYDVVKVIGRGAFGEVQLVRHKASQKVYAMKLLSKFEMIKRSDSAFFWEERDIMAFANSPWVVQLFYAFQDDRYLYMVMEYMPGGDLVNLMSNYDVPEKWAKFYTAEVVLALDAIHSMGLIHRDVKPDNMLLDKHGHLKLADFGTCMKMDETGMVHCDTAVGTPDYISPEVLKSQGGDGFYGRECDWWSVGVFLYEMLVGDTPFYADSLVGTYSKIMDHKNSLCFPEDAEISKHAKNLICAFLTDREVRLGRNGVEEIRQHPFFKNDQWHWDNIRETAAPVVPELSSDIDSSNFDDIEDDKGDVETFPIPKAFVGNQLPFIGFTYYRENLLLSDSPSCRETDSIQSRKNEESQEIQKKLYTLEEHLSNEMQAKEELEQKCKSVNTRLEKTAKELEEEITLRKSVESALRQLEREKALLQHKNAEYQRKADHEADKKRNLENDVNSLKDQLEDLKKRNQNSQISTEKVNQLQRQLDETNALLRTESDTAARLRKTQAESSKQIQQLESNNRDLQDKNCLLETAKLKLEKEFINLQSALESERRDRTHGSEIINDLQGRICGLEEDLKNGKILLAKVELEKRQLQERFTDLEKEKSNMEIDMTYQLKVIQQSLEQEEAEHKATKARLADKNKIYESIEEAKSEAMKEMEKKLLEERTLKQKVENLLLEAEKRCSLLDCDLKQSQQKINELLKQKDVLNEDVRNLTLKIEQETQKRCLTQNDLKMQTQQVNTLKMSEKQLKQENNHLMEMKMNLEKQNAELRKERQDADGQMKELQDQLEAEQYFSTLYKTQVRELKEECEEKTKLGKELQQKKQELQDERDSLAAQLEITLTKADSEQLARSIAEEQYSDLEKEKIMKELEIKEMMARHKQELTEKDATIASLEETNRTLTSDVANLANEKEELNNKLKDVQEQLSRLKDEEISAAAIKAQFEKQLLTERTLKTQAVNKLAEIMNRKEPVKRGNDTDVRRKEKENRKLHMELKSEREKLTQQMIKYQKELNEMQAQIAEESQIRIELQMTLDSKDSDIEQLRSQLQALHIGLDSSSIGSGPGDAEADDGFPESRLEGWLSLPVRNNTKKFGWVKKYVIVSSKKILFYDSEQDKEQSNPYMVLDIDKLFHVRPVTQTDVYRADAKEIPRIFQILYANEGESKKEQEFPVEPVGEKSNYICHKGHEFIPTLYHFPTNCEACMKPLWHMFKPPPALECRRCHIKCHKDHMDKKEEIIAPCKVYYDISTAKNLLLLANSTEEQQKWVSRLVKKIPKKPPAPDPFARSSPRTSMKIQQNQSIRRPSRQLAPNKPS
Outline: as §1

Sequence of Rho kinase 1 (Q13464 whole entry): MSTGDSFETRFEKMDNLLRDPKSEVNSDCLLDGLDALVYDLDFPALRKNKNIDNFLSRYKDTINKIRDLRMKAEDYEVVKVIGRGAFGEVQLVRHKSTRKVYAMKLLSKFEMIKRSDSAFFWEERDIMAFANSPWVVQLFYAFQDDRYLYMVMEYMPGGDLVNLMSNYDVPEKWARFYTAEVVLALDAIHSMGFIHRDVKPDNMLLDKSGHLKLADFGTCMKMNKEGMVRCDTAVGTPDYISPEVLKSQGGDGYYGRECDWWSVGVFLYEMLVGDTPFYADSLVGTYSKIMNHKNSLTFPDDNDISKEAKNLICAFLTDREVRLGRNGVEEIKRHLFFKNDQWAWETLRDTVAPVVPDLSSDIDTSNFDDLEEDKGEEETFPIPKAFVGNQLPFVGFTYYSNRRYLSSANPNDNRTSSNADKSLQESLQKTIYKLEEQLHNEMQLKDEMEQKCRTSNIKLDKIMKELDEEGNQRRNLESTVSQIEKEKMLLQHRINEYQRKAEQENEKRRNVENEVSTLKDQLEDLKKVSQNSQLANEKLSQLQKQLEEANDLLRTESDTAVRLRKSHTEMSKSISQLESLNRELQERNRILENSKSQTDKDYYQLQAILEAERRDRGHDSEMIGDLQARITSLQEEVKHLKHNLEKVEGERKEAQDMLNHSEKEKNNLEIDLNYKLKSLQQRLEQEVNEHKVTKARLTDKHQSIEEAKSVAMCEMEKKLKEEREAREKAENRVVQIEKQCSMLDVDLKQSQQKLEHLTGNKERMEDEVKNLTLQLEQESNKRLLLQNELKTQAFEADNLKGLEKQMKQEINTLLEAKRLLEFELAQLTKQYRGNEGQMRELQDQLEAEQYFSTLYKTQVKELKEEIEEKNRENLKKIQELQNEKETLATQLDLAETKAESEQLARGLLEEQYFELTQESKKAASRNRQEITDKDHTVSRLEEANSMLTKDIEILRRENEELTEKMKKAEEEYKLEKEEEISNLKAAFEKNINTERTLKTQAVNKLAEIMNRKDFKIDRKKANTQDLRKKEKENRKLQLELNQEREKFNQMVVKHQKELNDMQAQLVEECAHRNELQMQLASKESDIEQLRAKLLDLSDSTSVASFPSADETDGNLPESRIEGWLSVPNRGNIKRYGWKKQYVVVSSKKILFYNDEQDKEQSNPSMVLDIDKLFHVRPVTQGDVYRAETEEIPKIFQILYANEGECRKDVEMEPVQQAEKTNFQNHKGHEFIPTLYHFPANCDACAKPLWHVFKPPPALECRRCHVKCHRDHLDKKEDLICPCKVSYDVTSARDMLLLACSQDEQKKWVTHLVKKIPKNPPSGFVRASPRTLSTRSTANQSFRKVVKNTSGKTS

| Compound | Ki (Rho kinase 1) [nM] | Ki (Rho kinase 2) [nM] |
| --- | --- | --- |
| CC1=C(C(=O)Nc2ccc3cnccc3c2)C(C2COc3ccccc3O2)n2nc(CO)cc2N1 (single isomer, unassigned) [Example 72C, 7-(2,3-dihydrobenzo[b][1,4]dioxin-2-yl)-2-(hydroxymethyl)-N-(isoquinolin-6-yl)-5-methyl-4,7-dihydropyrazolo[1,5-a]pyrimidine-6-carboxamide] | 50 to 500 | 50 to 500 |
| CC1=C(C(=O)Nc2ccc3cnccc3c2)C(c2ccc(C)c(F)c2F)n2nc(CN(C)C)cc2N1 (stereo not shown) [Example 121, 7-(2,3-difluoro-4-methylphenyl)-2-((dimethylamino)methyl)-N-(isoquinolin-6-yl)-5-methyl-4,7-dihydropyrazolo[1,5-a]pyrimidine-6-carboxamide] | < 50 | < 50 |
| CC1=C(C(=O)Nc2ccc3cnccc3c2)C(c2ccc(Br)c(F)c2)n2nc(CO)cc2N1 (stereo not shown) [Example 55, 7-(4-bromo-3-fluorophenyl)-2-(hydroxymethyl)-N-(isoquinolin-6-yl)-5-methyl-4,7-dihydropyrazolo[1,5-a]pyrimidine-6-carboxamide] | < 50 | < 50 |
| CC1=C(C(=O)Nc2ccc3[nH]ncc3c2)C(c2ccc(Cl)nc2)n2nc(C(F)(F)F)cc2N1 (single isomer, unassigned) [Example 32B, 7-(6-chloropyridin-3-yl)-N-(1H-indazol-5-yl)-5-methyl-2-(trifluoromethyl)-4,7-dihydropyrazolo[1,5-a]pyrimidine-6-carboxamide] | < 50 | < 50 |
| CC1=C(C(=O)Nc2ccc3[nH]ncc3c2)C(c2ccc(Cl)nc2)n2nc(CO)cc2N1 (stereo not shown) [Example 70, 7-(6-chloropyridin-3-yl)-2-(hydroxymethyl)-N-(1H-indazol-5-yl)-5-methyl-4,7-dihydropyrazolo[1,5-a]pyrimidine-6-carboxamide] | < 50 | < 50 |
| CC1=C(C(=O)Nc2ccc3[nH]ncc3c2)C(c2ccc(F)cc2)n2ncc(C(N)=O)c2N1 (stereo not shown) [Example 19, 7-(4-fluorophenyl)-N6-(1H-indazol-5-yl)-5-methyl-4,7-dihydropyrazolo[1,5-a]pyrimidine-3,6-dicarboxamide] | 50 to 500 | 50 to 500 |
| CC1=C(C(=O)Nc2ccc3cnccc3c2)C(CCc2ccccc2)n2nc(CO)cc2N1 (stereo not shown) [Example 53, 2-(hydroxymethyl)-N-(isoquinolin-6-yl)-5-methyl-7-phenethyl-4,7-dihydropyrazolo[1,5-a]pyrimidine-6-carboxamide] | < 50 | < 50 |
| CC1=C(C(=O)Nc2ccc3[nH]ncc3c2)C(c2ccc(F)cc2)n2nnnc2N1 (single isomer, unassigned) [Example 23A, 7-(4-fluorophenyl)-N-(1H-indazol-5-yl)-5-methyl-4,7-dihydrotetrazolo[1,5-a]pyrimidine-6-carboxamide] | < 50 | < 50 |
| CC1=C(C(=O)Nc2ccc3cnccc3c2)C(c2ccc(Cl)cc2)n2nc(CO)cc2N1 (single isomer, unassigned) [Example 62A, 7-(4-chlorophenyl)-2-(hydroxymethyl)-N-(isoquinolin-6-yl)-5-methyl-4,7-dihydropyrazolo[1,5-a]pyrimidine-6-carboxamide] | < 50 | < 50 |
| CC1=C(C(=O)Nc2ccc3cnccc3c2)C(c2ccc(C(C)(C)C)cc2)n2nc(CO)cc2N1 (stereo not shown) [Example 54, 7-(4-(tert-butyl)phenyl)-2-(hydroxymethyl)-N-(isoquinolin-6-yl)-5-methyl-4,7-dihydropyrazolo[1,5-a]pyrimidine-6-carboxamide] | 50 to 500 | < 50 |
| CC1=C(C(=O)Nc2ccc3cnccc3c2)C(c2ccc(C)cc2)n2nc(CO)cc2N1 (stereo not shown) [Example 66, 2-(hydroxymethyl)-N-(isoquinolin-6-yl)-5-methyl-7-(p-tolyl)-4,7-dihydropyrazolo[1,5-a]pyrimidine-6-carboxamide] | < 50 | < 50 |
| CCOC(=O)c1cc2n(n1)C(c1cccc(OC)c1)C(C(=O)Nc1ccc3[nH]ncc3c1)=C(C)N2 (stereo not shown) [Example 6, ethyl 6-((1H-indazol-5-yl)carbamoyl)-7-(3-methoxyphenyl)-5-methyl-4,7-dihydropyrazolo[1,5-a]pyrimidine-2-carboxylate] | 50 to 500 | 50 to 500 |

The next lines start with the values.

| Ki (Rho kinase 1) [nM] | Ki (Rho kinase 2) [nM] | Compound |
| --- | --- | --- |
| < 50 | < 50 | CC1=C(C(=O)Nc2ccc3cnccc3c2)C(c2ccc(C(F)(F)F)c(F)c2)n2nc(CN(C)CC3CCN(C)CC3)cc2N1 (single isomer, unassigned) [Example 104A, 7-(3-fluoro-4-(trifluoromethyl)phenyl)-N-(isoquinolin-6-yl)-5-methyl-2-((methyl((1-methylpiperidin-4-yl)methyl)amino)methyl)-4,7-dihydropyrazolo[1,5-a]pyrimidine-6-carboxamide] |
| > 500 | > 500 | CC1=C(C(=O)Nc2ccc3cnccc3c2)C(c2ccc(C(F)(F)F)c(F)c2)n2nc(NC(=O)CN3CCCC3)cc2N1 (single isomer, unassigned) [132B] |
| 50 to 500 | 50 to 500 | CC1=C(C(=O)Nc2ccc3cnccc3c2)C(c2ccc(C(F)(F)F)c(F)c2)n2nc(CN(C)C)cc2N1 (single isomer, unassigned) [Example 94A, 2-((dimethylamino)methyl)-7-(3-fluoro-4-(trifluoromethyl)phenyl)-N-(isoquinolin-6-yl)-5-methyl-4,7-dihydropyrazolo[1,5-a]pyrimidine-6-carboxamide] |
| > 500 | > 500 | CC1=C(C(=O)Nc2ccc3cnccc3c2)C(c2ccc(C(F)(F)F)c(F)c2)n2nc(C(=O)NCCN3CCCCC3)cc2N1 (single isomer, unassigned) [77A] |
| < 50 | < 50 | COCCN(C)Cc1cc2n(n1)C(c1ccc(C(F)(F)F)c(F)c1)C(C(=O)Nc1ccc3cnccc3c1)=C(C)N2 (stereo not shown) [Example 98, 7-(3-fluoro-4-(trifluoromethyl)phenyl)-N-(isoquinolin-6-yl)-2-(((2-methoxyethyl)(methyl)amino)methyl)-5-methyl-4,7-dihydropyrazolo[1,5-a]pyrimidine-6-carboxamide] |
| < 50 | < 50 | CC1=C(C(=O)Nc2ccc3cnccc3c2)C(c2ccc(C(F)(F)F)c(F)c2)n2nc(NC(=O)CN3CCCC3)cc2N1 (single isomer, unassigned) [132A] |
| < 50 | < 50 | CC1=C(C(=O)Nc2ccc3cnccc3c2)C(c2ccc(C(F)(F)F)c(F)c2)n2nc(NC(=O)c3ccc(CN(C)C)cc3)cc2N1 (single isomer, unassigned) [Example 137B, 2-(4-((Dimethylamino)methyl)benzamido)-7-(3-fluoro-4-(trifluoromethyl)-phenyl)-N-(isoquinolin-6-yl)-5-methyl-4,7-dihydropyrazolo[1,5-a]pyrimidine-6-carboxamide] |
| < 50 | < 50 | CC1=C(C(=O)Nc2ccc3cnccc3c2)C(c2ccc(C(F)(F)F)c(F)c2)n2nc(N)cc2N1 (stereo not shown) [Example 130, 2-Amino-7-(3-fluoro-4-(trifluoromethyl)phenyl)-N-(isoquinolin-6-yl)-5-methyl-4,7-dihydropyrazolo[1,5-a]pyrimidine-6-carboxamide] |
| < 50 | < 50 | CC1=C(C(=O)Nc2ccc3cnccc3c2)C(c2ccc(C(F)(F)F)c(F)c2)n2nc(C(=O)NCCN(C)C)cc2N1 (stereo not shown) [Example 79, N2-(2-(dimethylamino)ethyl)-7-(3-fluoro-4-(trifluoromethyl)phenyl)-N6-(isoquinolin-6-yl)-5-methyl-4,7-dihydropyrazolo[1,5-a]pyrimidine-2,6-dicarboxamide] |
| 50 to 500 | < 50 | CC1=C(C(=O)Nc2ccc3cnccc3c2)C(c2ccc(C(F)(F)F)c(F)c2)n2nc(C(=O)N(C)CCN3CCCCC3)cc2N1 (single isomer, unassigned) [Example 78A, 7-(3-fluoro-4-(trifluoromethyl)phenyl)-N6-(isoquinolin-6-yl)-N2,5-dimethyl-N2-(2-(piperidin-1-yl)ethyl)-4,7-dihydropyrazolo[1,5-a]pyrimidine-2,6-dicarboxamide] |
| < 50 | < 50 | CC1=C(C(=O)Nc2ccc3cnccc3c2)C(c2ccc(C(F)(F)F)c(F)c2)n2nc(C(=O)N3CCC(N(C)C)CC3)cc2N1 (stereo not shown) [Example 87, 2-(4-(dimethylamino)piperidine-1-carbonyl)-7-(3-fluoro-4-(trifluoromethyl)phenyl)-N-(isoquinolin-6-yl)-5-methyl-4,7-dihydropyrazolo[1,5-a]pyrimidine-6-carboxamide] |
| < 50 | < 50 | CC1=C(C(=O)Nc2ccc3cnccc3c2)C(c2ccc(C(F)(F)F)c(F)c2)n2nc(C(=O)NCCN3CCOCC3)cc2N1 (stereo not shown) [Example 82, 7-(3-fluoro-4-(trifluoromethyl)phenyl)-N6-(isoquinolin-6-yl)-5-methyl-N2-(2-morpholinoethyl)-4,7-dihydropyrazolo[1,5-a]pyrimidine-2,6-dicarboxamide] |
| < 50 | < 50 | CC1=C(C(=O)Nc2ccc3cnccc3c2)C(c2ccc(Cl)c(C(F)(F)F)c2)n2nc(CO)cc2N1 (stereo not shown) [Example 47, 7-(4-chloro-3-(trifluoromethyl)phenyl)-2-(hydroxymethyl)-N-(isoquinolin-6-yl)-5-methyl-4,7-dihydropyrazolo[1,5-a]pyrimidine-6-carboxamide] |
| < 50 | < 50 | CC1=C(C(=O)Nc2ccc3cnccc3c2)C(c2ccc(C(F)(F)F)c(F)c2)n2nc(CN3CCN(C)CC3)cc2N1 (single isomer, unassigned) [Example 96B, 7-(3-fluoro-4-(trifluoromethyl)phenyl)-N-(isoquinolin-6-yl)-5-methyl-2-((4-methylpiperazin-1-yl)methyl)-4,7-dihydropyrazolo[1,5-a]pyrimidine-6-carboxamide] |
